Reference: patent publication US20230167127A1, “COMPOUNDS AND THEIR USE IN THE TREATMENT OF BACTERIAL INFECTION” (Hoffmann-La Roche Inc., priority 2020, published 2023)
Where two headings read alike, the source gives them in different places.

Tested on: Escherichia coli ATCC 25922
Assay: 50% growth inhibitory concentration (IC50) determination, Iso-Sensitest broth dilution
Assay type: cell-based
Settings: strain Escherichia coli ATCC 25922, 10-point broth dilution, optical density at 600 nm over 16 h, read-out: Escherichia coli growth inhibition IC50
Procedure, shortened: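 Growth was tracked as optical density at 600 nm every 20 minutes for 16 h at 35±2° C. Compounds from DMSO stocks were serially diluted twofold over 10 points (e.g. 50–0.097 μM final) in Iso-Sensitest broth. Inhibition computed in log-phase growth to give IC50.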

[1] = Escherichia coli, ATCC25922, 16 h

Row | Compound | IC50 [1] | IC50
1 | Cc1c(OCC(=O)NC(C)C)nc(C#N)c2c1CC(CNCCC1CN(c3ccc4c(n3)NC(=O)CO4)C(=O)O1)C2 (centres unmarked) [Example 222, 2-((1-cyano-4-methyl-6-(((2-(2-oxo-3-(3-oxo-3,4-dihydro-2H-pyrido[3,2-b][1,4]oxazin-6-yl)oxazolidin-5-yl)ethyl)amino)methyl)-6,7-dihydro-5H-cyclopenta[c]pyridin-3-yl)oxy)-N-isopropylacetamide] | 0.717 µM | –
2 | NC1c2cccc(Cl)c2CC1CCNCC1CN(c2ccc3c(n2)NC(=O)CO3)C(=O)O1 (racemic) [Example 194, 6-[2-oxo-5-[[2-[rac-1,2-trans-1-amino-4-chloro-2,3-dihydro-1H-inden-2-yl]ethylamino]methyl]-1,3-oxazolidin-3-yl]-4H-pyrido[3,2-b][1,4]oxazin-3-one] | < 0.0977 µM | –
3 | Cc1ncc(F)c2c1CC(NCCCc1cn(-c3cnc4c(n3)NC(=O)CO4)c(=O)o1)C2 (single isomer, unassigned; enantiomer a) [Example 367, 6-[5-[3-[(4-Fluoro-1-methyl-6,7-dihydro-5H-cyclopenta[c]pyridin-6-yl)amino]propyl]-2-oxo-1,3-oxazol-3-yl]-4H-pyrazino[2,3-b][1,4]oxazin-3-one, Enantiomer A] | < 0.0977 µM | –
4 | CCn1cc(C(=O)O)c(=O)c2ccc3c(c21)CC(CNCCC1CN(c2ccc4c(n2)NC(=O)CO4)C(=O)O1)C3 (centres unmarked) [Example 275, 1-Ethyl-4-oxo-8-[[2-[2-oxo-3-(3-oxo-4H-pyrido[3,2-b][1,4]oxazin-6-yl)-1,3-oxazolidin-5-yl]ethylamino]methyl]-8,9-dihydro-7H-cyclopenta[h]quinoline-3-carboxylic acid] | 0.592 µM | –
5 | Cc1nc(OCCNC(C)C)c(C)c2c1CC(CNCCC1CN(c3ccc4c(n3)NC(=O)CO4)C(=O)O1)C2 (centres unmarked) [Example 201, 6-[5-[2-[[1,4-dimethyl-3-[2-(propan-2-ylamino)ethoxy]-6,7-dihydro-5H-cyclopenta[c]pyridin-6-yl]methylamino]ethyl]-2-oxo-1,3-oxazolidin-3-yl]-4H-pyrido[3,2-b][1,4]oxazin-3-one] | 0.157 µM | –
6 | N#Cc1cccc2c1CC(NCCNC1CC(=O)N(c3ccc4c(n3)NC(=O)CO4)C1)C2 (centres unmarked) [Example 121, 2-[2-[[5-oxo-1-(3-oxo-4H-pyrido[3,2-b][1,4]oxazin-6-yl)pyrrolidin-3-yl]amino]ethylamino]-2,3-dihydro-1H-indene-4-carbonitrile] | 0.167 µM | –
7 | Cc1nc(OCC2(N)CC2)c(C)c2c1CC(CNCCC1CN(c3ccc4c(n3)NC(=O)CO4)C(=O)O1)C2 (centres unmarked) [Example 172, 6-[5-[2-[[3-[(1-aminocyclopropyl)methoxy]-1,4-dimethyl-6,7-dihydro-5H-cyclopenta[c]pyridin-6-yl]methylamino]ethyl]-2-oxo-1,3-oxazolidin-3-yl]-4H-pyrido[3,2-b][1,4]oxazin-3-one] | < 0.0977 µM | –
8 | O=C1COc2ncc(N3CC(CCNCC4Cc5cncc(F)c5C4)OC3=O)nc2N1 (centres unmarked) [Example 287, 6-[5-[2-[(4-fluoro-6,7-dihydro-5H-cyclopenta[c]pyridin-6-yl)methylamino]ethyl]-2-oxo-1,3-oxazolidin-3-yl]-4H-pyrazino[2,3-b][1,4]oxazin-3-one] | < 0.0977 µM | –
9 | Cc1ncc(C#N)c2c1CC(CNCCC1CN(c3ccc4c(n3)NC(=O)CO4)C(=O)O1)C2 (centres unmarked) [Example 47, 1-methyl-6-[[2-[2-oxo-3-(3-oxo-4H-pyrido[3,2-b][1,4]oxazin-6-yl)-1,3-oxazolidin-5-yl]ethylamino]methyl]-6,7-dihydro-5H-cyclopenta[c]pyridine-4-carbonitrile; formic acid] | < 0.0977 µM | –
10 | CNC(=O)COc1cc(F)c2c(c1F)CC(CNCCC1CN(c3ccc4c(n3)NC(=O)CO4)C(=O)O1)C2 (centres unmarked) [Example 394, 2-[[4,7-difluoro-2-[[2-[2-oxo-3-(3-oxo-4H-pyrido[3,2-b][1,4]oxazin-6-yl)-1,3-oxazolidin-5-yl]ethylamino]methyl]-2,3-dihydro-1H-inden-5-yl]oxy]-N-methylacetamide] | < 0.0977 µM | –
11 | 2-[[2-[2-oxo-3-(3-oxo-4H-pyrazino[2,3-b][1,4]oxazin-6-yl)-1,3-oxazolidin-5-yl]ethylamino]methyl]-6-(1H-triazol-5-ylmethoxy)-2,3-dihydro-1H-indene-4-carbonitrile [Example 426] | – | 0.156 µM
12 | O=C1COc2ccc(N3CC(CCNCC4Cc5ccncc5C4)OC3=O)nc2N1 (centres unmarked) [Example 418, 6-[5-[2-(6,7-Dihydro-5H-cyclopenta[c]pyridin-6-ylmethylamino)ethyl]-2-oxo-1,3-oxazolidin-3-yl]-4H-pyrido[3,2-b][1,4]oxazin-3-one] | 0.751 µM | –
13 | COc1cnc(Cl)c2c1CC(CNCCC1CN(c3cnc4c(n3)NC(=O)CO4)C(=O)O1)C2 (centres unmarked) [Example 58, 6-[5-[2-[(1-chloro-4-methoxy-6,7-dihydro-5H-cyclopenta[c]pyridin-6-yl)methylamino]ethyl]-2-oxo-1,3-oxazolidin-3-yl]-4H-pyrazino[2,3-b][1,4]oxazin-3-one; formic acid] | 0.19 µM | –
14 | Cc1ncc(F)c2c1CC(CNCCc1nn(-c3ccc4c(n3)NC(=O)CO4)c(=O)o1)C2 (centres unmarked) [Example 68, 6-[5-[2-[(4-fluoro-1-methyl-6,7-dihydro-5H-cyclopenta[c]pyridin-6-yl)methylamino]ethyl]-2-oxo-1,3,4-oxadiazol-3-yl]-4H-pyrido[3,2-b][1,4]oxazin-3-one] | 0.175 µM | –
15 | CNC(=O)COc1ccc2c(c1Cl)CC(CNCCC1CN(c3cnc4c(n3)NC(=O)CO4)C(=O)O1)C2 (centres unmarked) [Example 109, 2 2-[[4-chloro-2-[[2-[2-oxo-3-(3-oxo-4H-pyrazino[2,3-b][1,4]oxazin-6-yl)-1,3-oxazolidin-5-yl]ethylamino]methyl]-2,3-dihydro-1H-inden-5-yl]oxy]-N-methylacetamide] | 0.098 µM | –
16 | N#Cc1cc(OC[C@H](N)CO)cc2c1CC(CNCCC1CN(c3ccc4c(n3)NC(=O)CO4)C(=O)O1)C2 (stereo partly drawn) [Example 236, 6-[(2R)-2-Amino-3-hydroxypropoxy]-2-[[2-[2-oxo-3-(3-oxo-4H-pyrido[3,2-b][1,4]oxazin-6-yl)-1,3-oxazolidin-5-yl]ethylamino]methyl]-2,3-dihydro-1H-indene-4-carbonitrile] | < 0.0977 µM | –
17 | CC(N)COc1cc2c(c(Cl)n1)CC(CNCCC1CN(c3ccc4c(n3)NC(=O)CO4)C(=O)O1)C2 (centres unmarked) [Example 144, 6-[5-[2-[[3-(2-aminopropoxy)-1-chloro-6,7-dihydro-5H-cyclopenta[c]pyridin-6-yl]methylamino]ethyl]-2-oxo-1,3-oxazolidin-3-yl]-4H-pyrido[3,2-b][1,4]oxazin-3-one; formic acid] | 0.131 µM | –
18 | NC1c2cccc(Cl)c2CC1CN[C@H]1C[C@@]2(CN(c3ccc4c(n3)NC(=O)CO4)C(=O)O2)C1 (mixture of isomers) [Example 211, 2,4-trans-6-[6-oxo-2-[[rac-1,2-trans-1-amino-4-chloro-2,3-dihydro-1H-inden-2-yl]methylamino]-5-oxa-7-azaspiro[3.4]octan-7-yl]-4H-pyrido[3,2-b][1,4]oxazin-3-one] | < 0.0977 µM | –
19 | Cc1nc(OCC2(N)CC2)cc2c1CC(CNCCC1CN(c3ccc4c(n3)NC(=O)CO4)C(=O)O1)C2 (centres unmarked) [Example 175, 6-[5-[2-[[3-[(1-aminocyclopropyl)methoxy]-1-methyl-6,7-dihydro-5H-cyclopenta[c]pyridin-6-yl]methylamino]ethyl]-2-oxo-1,3-oxazolidin-3-yl]-4H-pyrido[3,2-b][1,4]oxazin-3-one] | 0.193 µM | –
20 | N#Cc1c(OCCN2CCOCC2)ccc2c1CC(CNCCC1CN(c3ccc4c(n3)NC(=O)CO4)C(=O)O1)C2 (centres unmarked) [Example 54, 5-(2-morpholin-4-ylethoxy)-2-[[2-[2-oxo-3-(3-oxo-4H-pyrido[3,2-b][1,4]oxazin-6-yl)-1,3-oxazolidin-5-yl]ethylamino]methyl]-2,3-dihydro-1H-indene-4-carbonitrile; formic acid] | 0.357 µM | –
21 | Cc1nc2c(c3c1CC(CNCCC1CN(c4ccc5c(n4)NC(=O)CO5)C(=O)O1)C3)CCN2 (centres unmarked) [Example 423, 6-[5-[2-[(8-Methyl-5,7-diazatricyclo[7.3.0.0^2.6]dodeca-1,6,8-trien-11-yl)methylamino]ethyl]-2-oxo-1,3-oxazolidin-3-yl]-4H-pyrido[3,2-b][1,4]oxazin-3-one] | 0.468 µM | –
22 | Cn1ccc(COc2cc(C#N)c3c(c2)CC(CNCCC2CN(c4cnc5c(n4)NC(=O)CO5)C(=O)O2)C3)n1 (centres unmarked) [Example 388, 6-[(1-methylpyrazol-3-yl)methoxy]-2-[[2-[2-oxo-3-(3-oxo-4H-pyrazino[2,3-b][1,4]oxazin-6-yl)-1,3-oxazolidin-5-yl]ethylamino]methyl]-2,3-dihydro-1H-indene-4-carbonitrile] | 0.192 µM | –
23 | O=C1COc2ncc(N3CC(CCNCC4Cc5cc(OCCN6C(=O)CCC6=O)cc(F)c5C4)OC3=O)nc2N1 (centres unmarked) [Example 345] | 0.659 µM | –
24 | CC(C)(CC1CN(c2ccc3c(n2)NC(=O)CO3)C(=O)O1)NCC1Cc2ccnc(Cl)c2C1 (centres unmarked) [Example 30, 6-[5-[2-[(1-chloro-6,7-dihydro-5H-cyclopenta[c]pyridin-6-yl)methylamino]-2-methylpropyl]-2-oxo-1,3-oxazolidin-3-yl]-4H-pyrido[3,2-b][1,4]oxazin-3-one; formic acid] | 3.4 µM | –
25 | Cc1ncc(C#N)c2c1CC(CNCC[C@@H]1CN(c3cnc4c(n3)NC(=O)CO4)C(=O)O1)C2 (stereo partly drawn) [Example 365, 1-methyl-6-[[2-[(5R)-2-oxo-3-(3-oxo-4H-pyrazino[2,3-b][1,4]oxazin-6-yl)-1,3-oxazolidin-5-yl]ethylamino]methyl]-6,7-dihydro-5H-cyclopenta[c]pyridine-4-carbonitrile] | < 0.0977 µM | –
26 | N#Cc1cccc2c1CC(CNC1CCC3C(C1)OC(=O)N3c1ccc3c(n1)NC(=O)CO3)C2 (racemic) [Example 31, 2-[[[rac-3a,7a-trans-6,7a-cis-2-oxo-3-(3-oxo-4H-pyrido[3,2-b][1,4]oxazin-6-yl)-3a,4,5,6,7,7a-hexahydro-1,3-benzoxazol-6-yl]amino]methyl]-2,3-dihydro-1H-indene-4-carbonitrile] | – | 0.156 µM
